Measurements reported in patent publication US8865624B2, “Inhibitor for tobacco axillary bud growth and method for inhibiting tobacco axillary bud growth” (SDS Biotech K.K., priority 2010, dated 2014).

How the values were obtained:
[1] = system: Tobacco Tsukuba 1 (flue-cured cultivar) leaves (first to fourth leaves from the top); assay: Harmful effect of inhibitor on tobacco leaves, flue-cured cultivar; type: in vivo, Nicotiana tabacum; settings: in vivo
Procedure: (§1) Tobacco seedlings of Tsukuba 1 (flue-cured cultivar) and Michinoku 1 (burley cultivar) were transplanted to 1/5000a Wagner pots filled with Kureha garden nursery soil. The plants were grown in a glasshouse, and the floral axis parts were removed at the time of single-flower bloom of tobacco (top pruning).
(§2) The formulations of the inhibitors for tobacco axillary bud growth obtained in Formulation Examples 1 to 10 above were each diluted with water to predetermined concentrations, and 20 ml of the water-diluted solutions of the respective inhibitors were separately sprayed using a contact-type axillary bud inhibitor spraying instrument equipped with a spot exhaust nozzle (Examples 1 to 11 and 12 to 22). In addition, butralin (trade name: Blue Ribbon) (Comparative Examples 1 and 3) and decyl alcohol (trade name: Contact) (Comparative Examples 2 and 4) were used for tests as comparative examples in the same manner as above. In the cases of both the flue-cured cultivar and burley cultivar, one plant was planted per pot, and the tests were carried out in duplicate.
(§3) Further, the presence or absence of the harmful effect of each inhibitor was evaluated in one of the following four categories depending on the degrees of growth inhibition, gangrene, change in color, deformation and the like of leaves (first to fourth leaves from the top).
(§4) Large: A severely harmful effect was observed.
(§5) Middle: A clearly harmful effect was observed.
(§6) Small: A slightly harmful effect was observed.
(§7) Absent: No harmful effect was observed.
(§8) The formulation of Formulation Example 11 (cafenstrole), Formulation Example 12 (thenylchlor) or Formulation Example 13 (chlorthal-dimethyl) above was diluted with water to predetermined concentrations, and the resultant was mixed, adjusted and used for tests (Examples 41 to 58 and 59 to 76). In addition, as comparative examples, the formulation of Formulation Example 11, Formulation Example 12 or Formulation Example 13 diluted with water to predetermined concentrations (Comparative Examples 21 to 29 and 34 to 42), butralin (trade name: Blue Ribbon) (Comparative Examples 17, 18, 30, and 31) and decyl alcohol (trade name: Contact) (Comparative Examples 19, 20, 32, and 33) were used for tests in the same manner as above.
(§9) The respective inhibitors were sprayed in the same manner as in Test Example 1, and states of inhibition of axillary bud growth 28 days after the spraying were investigated together with untreated groups sprayed with no inhibitor. Then, axillary bud growth inhibition ratios were calculated.

[2] = system: Tobacco Tsukuba 1 (flue-cured cultivar) axillary buds; assay: Tobacco axillary bud growth inhibition test, flue-cured cultivar; type: in vivo, Nicotiana tabacum; settings: Nicotiana tabacum, 672 h, 28 days after the spraying, read-out: Axillary bud growth inhibition ratio
Procedure: as §1, §2
(§10) For the respective cases, states of inhibition of axillary bud growth 28 days after the spraying were investigated together with untreated groups sprayed with no inhibitor, and axillary bud growth inhibition ratios were calculated by the following equation. Axillary bud growth inhibition ratio=(fresh weight of axillary buds per plant of untreated group−fresh weight of axillary buds per plant of treated group)÷(fresh weight of axillary buds per plant of untreated group)×100 [Math. 1]
(§11) The formulation of Formulation Example 1 (cafenstrole), Formulation Example 2 (thenylchlor) or Formulation Example 10 (propisochlor) above was diluted with water to predetermined concentrations and mixed with decyl alcohol (manufactured by Wako Pure Chemical Industries, Ltd.), 2-ethylhexanol (manufactured by Wako Pure Chemical Industries, Ltd.) or geraniol (manufactured by Wako Pure Chemical Industries, Ltd.) at predetermined concentrations, and the resultant was adjusted and used for tests (Examples 23 to 31 and 32 to 40). In addition, as comparative examples, the formulation of Formulation Example 1, […], or Formulation Example 10 diluted with water to predetermined concentrations (Comparative Examples 5 to 7 and 11 to 13) and decyl alcohol, 2-ethylhexanol or geraniol diluted with water to a predetermined concentration were used for tests (Comparative Examples 8 to 10 and 14 to 16).
as §9, §8

[3] = system: Tobacco Michinoku 1 (burley cultivar) leaves (first to fourth leaves from the top); assay: Harmful effect of inhibitor on tobacco leaves, burley cultivar; type: in vivo, Nicotiana tabacum; settings: in vivo
Procedure: as §1, §2, §3, §4, §5, §6, §7, §8, §9

[4] = system: Tobacco Michinoku 1 (burley cultivar) axillary buds; assay: Tobacco axillary bud growth inhibition test, burley cultivar; type: in vivo; settings: Nicotiana tabacum, 672 h, 28 days after the spraying, read-out: Axillary bud growth inhibition ratio
Procedure: as §1, §2, §10, §11, §9, §8

COc1ccsc1CN(C(=O)CCl)c1c(C)cccc1C [Thenylchlor] was tested, and the “Harmful effect of inhibitor” value [1] was “Absent”, the pest or weed control at 0.1 % ([2]; Table 1, flue-cured cultivar, concentration of active ingredient 0.1%) was 96% and the pest or weed control at 0.05 % ([2]; Table 3, flue-cured cultivar, concentration of active ingredient 0.05%) was 74%. For the same compound, the pest or weed control at 0.002 % ([2]; Table 5, flue-cured cultivar, concentration of active ingredient 0.002%) was 12%, the pest or weed control at 0.005 % ([2]; Table 5, flue-cured cultivar, concentration of active ingredient 0.005%) was 14% and the pest or weed control at 0.01 % ([2]; Table 5, flue-cured cultivar, concentration of active ingredient 0.01%) was 22%. For the same compound, the “Harmful effect of inhibitor” value [3] was “Absent”, the pest or weed control at 0.1 % ([4]; Table 2, burley cultivar, concentration of active ingredient 0.1%) was 95% and the pest or weed control at 0.05 % ([4]; Table 4, burley cultivar, concentration of active ingredient 0.05%) was 70%. It also gave a pest or weed control at 0.002 % ([4]; Table 6, burley cultivar, concentration of active ingredient 0.002%) of 11%, a pest or weed control at 0.005 % ([4]; Table 6, burley cultivar, concentration of active ingredient 0.005%) of 22% and a pest or weed control at 0.01 % ([4]; Table 6, burley cultivar, concentration of active ingredient 0.01%) of 28%.
